Measured values from patent publication US20030224978A1, “Compounds and methods for modulating apoptosis” (McGill University, priority 1996, published 2003).
Entries after “also recorded” stand apart in the source; their conditions may differ. Positions of bridges follow the written chain, without caps; N, C: chain ends. Residues, ends and D or L forms follow the SMILES beside them.

Assays:
Format in all cases: cell-based
OVCAR-3 = test: Disruption of human ovarian cancer cell (OVCAR-3) adhesion; details: for OVCAR3 cell morphology: 24 hours
Method: The human ovarian cancer cell line OVCAR-3, which expresses E-cadherin, was used in these experiments. Cells were cultured in RPMI supplemented with insulin and containing 20% FCS. Cells were grown in T-250 culture flasks and maintained by periodic subculturing. Cells were harvested from flasks and seeded in individual wells of 96-well culture dishes (surface area of each well was 0.32 cm^2) at a density of 50,000 cells per well in 0.1 ml media containing the cyclic peptides (at concentrations of 1, 0.1, or 0.01 mg/ml). Media control wells were also established. Cultures were evaluated periodically by microscopic examination under both bright field and phase contrast conditions, and were maintained for 48 hours.

NRK cells = test: Disruption of normal rat kidney (NRK) cell adhesion and E-cadherin immunostaining; details: 1 mg/mL, 48 hours
Method: Within another such assay, the effect of a modulating agent on normal rat kidney (NRK) cells may be evaluated. According to a representative procedure, NRK cells (ATCC #1571-CRL) may be plated at 10-20,000 cells per 35 mm tissue culture flasks containing DMEM with 10% FCS and sub-cultured periodically (Laird et al., J. Cell Biol. 131:1193-1203, 1995). Cells may be harvested and replated in 35 mm tissue culture flasks containing 1 mm coverslips and incubated until 50-65% confluent (24-36 hours). At this time, coverslips may be transferred to a 24-well plate, washed once with fresh DMEM and exposed to modulating agent at a concentration of, for example, 1 mg/mL for 24 hours. Fresh modulating agent may then be added, and the cells left for an additional 24 hours. Cells may be fixed with 100% methanol for 10 minutes and then washed three times with PBS. Coverslips may be blocked for 1 hour in 2% BSA/PBS and incubated for a further 1 hour in the presence of mouse anti-E-cadherin antibody (Transduction Labs, 1:250 dilution). Primary and secondary antibodies may be diluted in 2% BSA/PBS. Following incubation in the primary antibody, coverslips may be washed three times for 5 minutes each in PBS and incubated for 1 hour with donkey anti-mouse antibody conjugated to fluorescein (diluted 1:200). Following further washes in PBS (3×5 min) coverslips can be mounted and viewed by confocal microscopy.
In the absence of modulating agent, NRK cells form characteristic tightly adherent monolayers with a cobblestone morphology in which cells display a polygonal shape. NRK cells that are treated with a modulating agent that disrupts E-cadherin mediated cell adhesion may assume a non-polygonal and elongated morphology (i.e., a fibroblast-like shape) within 48 hours of treatment with 1 mg/mL of modulating agent. Gaps appear in confluent cultures of such cells. In addition, 1 mg/mL of such a modulating agent reproducibly induces a readily apparent reduction in cell surface staining of E-cadherin, as judged by immunofluorescence microscopy (Laird et al., J. Cell Biol. 131:1193-1203, 1995), of at least 75% within 48 hours.
NRK cells (ATCC #1571-CRL) were plated at 10-20,000 cells per 35 mm tissue culture flasks containing DMEM with 10% FCS and sub-cultured periodically (Laird et al., J. Cell Biol. 131:1193-1203, 1995). Cells were harvested and replated in 35 mm tissue culture flasks containing […] coverslips and incubated until 50-65% confluent (24-36 hours). At this time, coverslips were transferred to a 24-well plate, washed once with fresh DMEM and exposed to cyclic peptide solutions (N-Ac-CHAVC-NH2 (SEQ ID NO:10) and N-Ac-CHGVC-NH2 (SEQ ID NO:20)) at a concentration of 1 mg/mL for 24 hours. Fresh peptide solutions were then added and the cells were left for an additional 24 hours. […]

[1] = system: 3T3 cells not expressing N-cadherin, N-CAM, or L1 (control cells); test: Neurite outgrowth of mouse cerebellar neurons on control 3T3 cells (Example 2); details: 500 μg/ml
Method: Neurons were cultured on monolayers of 3T3 cells transfected with cDNA encoding N-cadherin essentially as described by Doherty and Walsh, Curr. Op. Neurobiol. 4:49-55, 1994; Williams et al., Neuron 13:583-594, 1994; Hall et al., Cell Adhesion and Commun. 3:441-450, 1996; Doherty and Walsh, Mol. Cell. Neurosci. 8:99-111, 1994; Safell et al., Neuron 18:231-242, 1997. Briefly, monolayers of control 3T3 fibroblasts and 3T3 fibroblasts that express N-cadherin were established by overnight culture of 80,000 cells in individual wells of an 8-chamber well tissue culture slide. 3000 cerebellar neurons isolated from post-natal day 3 mouse brains were cultured for 18 hours on the various monolayers in control media (SATO/2%FCS), or media supplemented with various concentrations of the cyclic peptide N-Ac-CHAVC-NH2 (SEQ ID NO:10) or a control peptide without the HAV sequence (N-Ac-CHGVC-NH2 (SEQ ID NO:20)). The cultures were then fixed and stained for GAP43 which specifically binds to the neurons and their neurites. The length of the longest neurite on each GAP43 positive neuron was then measured by computer assisted morphometry.

[2] = system: A1N4 human breast epithelial cells; test: Disruption of breast epithelial cell adhesion, E-cadherin immunostaining; details: 500 μg/mL, 48 hours
Method: A1N4 human breast epithelial cells (kindly provided by Martha Stampfer, Lawrence Berkeley Laboratory, Berkeley, Calif.) were plated on glass coverslips and cultured in F12/DME containing 0.5% FCS and 10 ng/mL EGF for 24 hours. Fresh medium containing the cyclic peptides (final concentration 500 μg/mL media) N-Ac-CHAVC-NH2 (SEQ ID NO:10) or N-Ac-CHGVC-NH2 (SEQ ID NO:20) was then added. Following 24 hours of culture in the presence of the peptides, the medium was removed and fresh medium containing the peptides was added. The cells were fixed 24 hours later with cold methanol and stored in phosphate buffered saline (PBS).
Coverslips were blocked for 1 hour in 3% ovalbumin/PBS and incubated for a further 1 hour in the presence of 1 μg/mL mouse anti-E-cadherin antibody (Zymed, Gaithersburg, Md.). Primary and secondary antibodies were diluted in PBS containing 6% normal goat serum. Following incubation in the primary antibody, coverslips were washed 3 times for 5 minutes each in PBS and incubated for 1 hour with goat anti-mouse conjugated to fluorescein (Kiekegard and Perry, South San Francisco, Calif.) diluted 1:100. Following a further wash in PBS (3×5 minutes) coverslips were mounted in Vectashield (Vector Labs, Burlingame, Calif.) and viewed with a Zeiss infinity corrected microscope.

| SMILES | OVCAR3 cell morphology (OVCAR-3; 100 μg/ml) | OVCAR3 cell morphology (OVCAR-3; 1 mg/ml) | effect on OVCAR-3 adhesion (OVCAR-3; 1, 0.1, or 0.01 mg/ml, up to 48 hours) | E-cadherin expression in NRK cells (immunofluorescence) (NRK cells) | effect on NRK cell adhesion (NRK cells) | effect on neurite outgrowth on control 3T3 cells [1] | E-cadherin staining and monolayer of A1N4 cells [2] |
| --- | --- | --- | --- | --- | --- | --- | --- |
| CC(=O)N[C@H]1CSSC[C@@H](C(N)=O)NC(=O)[C@H](CO)NC(=O)[C@H](C(C)C)NC(=O)[C@H](C)NC(=O)[C@H](Cc2c[nH]cn2)NC1=O [N-Ac-CHAVSC-NH2, N-Ac-Cys-His-Ala-Val-Ser-Cys-NH2] (Ac-CHAVSC-NH2; disulfide 1-6) | retract form one another | round up | disrupted OVCAR-3 adhesion | – | – | – | – |
| CC(=O)N[C@H]1CSSC[C@@H](C(N)=O)NC(=O)[C@H](C(C)C)NC(=O)[C@H](C)NC(=O)[C@H](Cc2c[nH]cn2)NC1=O [N-Ac-CHAVC-NH2, N-Ac-Cys-His-Ala-Val-Cys-NH2] | – | – | – | greatly reduced levels of E-cadherin | disrupted NRK cell adhesion; also recorded: retract from one another | did not inhibit neurite outgrowth | reduced E-cadherin staining with a stitched appearance; also recorded: distribution of E-cadherin is non-contiguous |
| CC(=O)N[C@H]1CSSC[C@@H](C(N)=O)NC(=O)[C@H](C(C)C)NC(=O)CNC(=O)[C@H](Cc2c[nH]cn2)NC1=O [N-Ac-CHGVC-NH2, reference compound] | – | – | – | expressed E-cadherin | had no affect on cell adhesion | – | – |
